The conditions of data set [1]: cited from earlier work; for pKa of base: Table 5; for pKa 1: pKa value of base, Tables 2-4.
Data set [2] is described as follows: Solubility of the salts in water determined by HPLC, with pH of the filtered mixtures. Conditions: for Solubility: HPLC grade water, stirred 18 hours at 15 to 25° C., filtered, HPLC.
A short description of data set [3]: basic solubility screen of Compound 1 free acid in solvents. It is filed as physicochemical. Conditions: for Solution Yes/No 20 vol R.T.: 50 mg, stirred at 15 to 25° C.
Setting [4] is: pH of the filtered mixtures in water.

Like-named read-outs stand apart in the source and are kept apart here.

The Solubility is the concentration that dissolves in the medium under given conditions.

For the molecule `CNC[C@H](O)[C@@H](O)[C@H](O)[C@H](O)CO` [N-methyl Glucamine], the pKa of base in data set [1] was 8.
Consider `Cc1c(Cc2ccc3ccccc3n2)c2cc(F)ccc2n1CC(=O)O` [Ammonium, (5-fluoro-2-methyl-3-quinolin-2-ylmethyl-indol-1-yl)acetic acid], for which, in data set [2], the pH came out at 8 and the Solubility worked out at 4.98 mg/mL.
As to `Cc1c(Cc2ccc3ccccc3n2)c2cc(F)ccc2n1CC(=O)O` [Tris, (5-fluoro-2-methyl-3-quinolin-2-ylmethyl-indol-1-yl)acetic acid], in data set [2], the Solubility is 3.26 mg/mL. In data set [2] (setting [4]), the pH came out at 9. In data set [1], the pKa of base is recorded as 8.
As for `OCCN1CCOCC1` [4-(2-Hydroxyethyl)morpholine], in data set [1], the pKa of base is on record as 7.4 and the “pKa 1” value is 7.4.
Consider `Cc1c(Cc2ccc3ccccc3n2)c2cc(F)ccc2n1CC(=O)O` [Potassium, (5-fluoro-2-methyl-3-quinolin-2-ylmethyl-indol-1-yl)acetic acid], for which, in data set [2], the Solubility is 32.36 mg/mL. For the same molecule, the pH is listed as 12 in data set [2] (setting [4]) and 12 in data set [2] (pH of the filtered mixtures in water, listed as potassium). In addition, in data set [1], the pKa of base is recorded as 14.0.
`OCCN1CCCC1` [1-(2-Hydroxyethyl)pyrrolidine]: in data set [1], the pKa of base is on record as 9.4 and the “pKa 1” value is reported as 9.4.
For the molecule `Cc1c(Cc2ccc3ccccc3n2)c2cc(F)ccc2n1CC(=O)O` [Sodium, (5-fluoro-2-methyl-3-quinolin-2-ylmethyl-indol-1-yl)acetic acid], in data set [2], the Solubility was determined as 84.28 mg/mL. Further, in data set [2] (setting [4]), the pH is given as 9. The “solubility in water compared (in words)” value in data set [2] (water) is reported as “most soluble”. Besides, in data set [1], the pKa of base was 14.0.
On to `Cc1c(Cc2ccc3ccccc3n2)c2cc(F)ccc2n1CC(=O)O` [Compound 1, (5-fluoro-2-methyl-3-quinolin-2-ylmethyl-indol-1-yl)acetic acid], for which the Solubility is 0.05 mg/mL in data set [2] and below 25 mg/mL in data set [3] (variety of solvents (Table 1), organic solvent or mixture, thermodynamic from solid). Besides, the pH in data set [2] (setting [4]) is on record as 7. Further, the “solubility in NMP (50 mg retained in 20 vol)” value in data set [3] (NMP at 15 to 25° C. after obtaining a solution at 100° C.) was at least 50 mg per ml. Moreover, the “Solution Yes/No 20 vol reflux” value is listed as “No” in data set [3] (solvent Acetone); “No” in data set [3] (solvent Acetonitrile); “No” in data set [3] (solvent Chloroform); “No” in data set [3] (solvent DMF, heated to 100° C.); “Yes” in data set [3] (solvent DMSO, heated to 100° C.); “No” in data set [3] (solvent Ethanol). Besides, the “Solution Yes/No 20 vol reflux” value in data set [3] (solvent Ethyl acetate) is “No”; in data set [3] (solvent Heptanes) it was “No”; in data set [3] (solvent IPA), “No”; in data set [3] (solvent Methanol) it was “No”; in data set [3] (solvent NMP, heated to 100° C.), “Yes”; in data set [3] (solvent TBME), “No”. The “Solution Yes/No 20 vol reflux” value in data set [3] (solvent Toluene) and in data set [3] (solvent Water) was “No” throughout. Further, the “Solution Yes/No 40 vol reflux” value in data set [3] (solvent Acetone) is on record as “No”; in data set [3] (solvent Acetonitrile), “No”; in data set [3] (solvent Chloroform), “No”; in data set [3] (solvent DMF, heated to 100° C.) it was “Yes”; in data set [3] (solvent Ethanol) it was “No”; in data set [3] (solvent Ethyl acetate), “No”. Also, the “Solution Yes/No 40 vol reflux” value in data set [3] (solvent Heptanes), in data set [3] (solvent IPA), in data set [3] (solvent Methanol), in data set [3] (solvent TBME), in data set [3] (solvent Toluene) and in data set [3] (solvent Water) was “No” each time. In addition, the “Solution on cooling to R.T.” value in data set [3] (solvent Acetone), in data set [3] (solvent Acetonitrile), in data set [3] (solvent Chloroform), in data set [3] (solvent DMF), in data set [3] (solvent DMSO) and in data set [3] (solvent Ethanol) was “No” in each case. For the same molecule, the “Solution on cooling to R.T.” value is listed as “No” in data set [3] (solvent Ethyl acetate); “No” in data set [3] (solvent Heptanes); “No” in data set [3] (solvent IPA); “No” in data set [3] (solvent Methanol); “Yes” in data set [3] (solvent NMP); “No” in data set [3] (solvent TBME). The “Solution on cooling to R.T.” value in data set [3] (solvent Toluene) and in data set [3] (solvent Water) was “No” throughout. The “Solution Yes/No 20 vol R.T.” value in data set [3] (solvent Acetone), in data set [3] (solvent Acetonitrile), in data set [3] (solvent Chloroform), in data set [3] (solvent DMF), in data set [3] (solvent DMSO) and in data set [3] (solvent Ethanol) was “No” throughout. Also, the “Solution Yes/No 20 vol R.T.” value in data set [3] (solvent Ethyl acetate), in data set [3] (solvent Heptanes), in data set [3] (solvent IPA), in data set [3] (solvent Methanol), in data set [3] (solvent NMP) and in data set [3] (solvent TBME) was “No” throughout. Also, the “Solution Yes/No 20 vol R.T.” value in data set [3] (solvent Toluene) and in data set [3] (solvent Water) was “No” in each case.
As to `c1c[nH]cn1` [Imidazole], in data set [1], the pKa of base is 7 and the “pKa 1” value is 7.
As for `C[N+](C)(C)CC(=O)O` [Betaine], the pKa of base in data set [1] is 12.2.
Turning to Deanol, in data set [1], the pKa of base is 8.8 and the “pKa 1” value was 8.8.
`C[N+](C)(C)CCO` [Choline]: in data set [1], the pKa of base is given as above 11 and the “pKa 1” value is above 11.

Values taken from patent publication US20100056544A1, “Salts with CRTH2 Antagonist Activity” (Oxagen Limited, priority 2007, published 2010).
